Data set [1] is described as follows: Release rates of active agents from Tecophilic, Tecoflex and Carbothane polyurethane implants (Example 6). It is filed as physicochemical.
For data set [2] the following is noted: cited from earlier work.
A short description of data set [3]: In vitro elution of histrelin from Tecophilic HP-60D-20 polyurethane implant (Example 1). It is filed as physicochemical. As to conditions: HP-60D-20 implant. The source says: HP-60D-20 is extruded to tubes with thickness of 0.30 mm with inside diameter of 1.75 mm. The tubes are then cut into 25 mm in length. One side of the tube is sealed with heat using a heat sealer. The sealing time is less than one minute. Four pellets of histrelin acetate are loaded into the tube. […] Each pellet is comprised of a mixture of 98% histrelin and 2% stearic acid. The second end open of the tube is sealed with heat in the same way as for the first end. The loaded implant is then conditioned and primed. The conditioning takes place at room temperature in a 0.9% saline solution for one day. Upon completion of the conditioning, the implant undergoes priming. The priming takes place at room temperatures in a 1.8% saline solution for one day. Each implant is tested in vitro in a medium selected to mimic the pH found in the human body. The temperature of the selected medium was kept at approximately 37° C. during the testing. The release rates are shown on FIG. 4 and Table 2.

The mark [4] stands for this setting: Carbothane PC-3595A, F.M.: 4,500.

Structures can show the parent of a compound that is named as a salt.

In the case of `Cc1ccccc1N1C(=O)c2cc(S(N)(=O)=O)c(Cl)cc2NC1C` (stereo not drawn) [Metolazone], the non-normalized release rate in data set [1] (Carbothane PC-3575A, F.M.: 620) is 20 µg/day; in data set [1] (setting [4]), 6.1 µg/day; in data set [1] (Tecoflex EG 100A, F.M.: 10,000), 5.5 µg/day; in data set [1] (Tecoflex EG-85A, F.M.: 2,300) it was 77 µg/day; in data set [1] (Tecophilic HP-60D-20, 15% EWC), 124 µg/day. Also, the “release rate normalized to surface area of the implant” value (shortened to “release rate normalized”) in data set [1] (Carbothane PC-3575A, F.M.: 620) is recorded as 8.4 μg/day/cm^2; in data set [1] (setting [4]), 2.6 μg/day/cm^2; in data set [1] (Tecoflex EG 100A, F.M.: 10,000), 2.3 μg/day/cm^2; in data set [1] (Tecoflex EG-85A, F.M.: 2,300), 32 μg/day/cm^2; in data set [1] (Tecophilic HP-60D-20, 15% EWC), 50 μg/day/cm^2. Also, the “Log P” value in data set [2] is recorded as “Log P = 2.50”.
With `C[C@@H]1C[C@H]2[C@@H]3CCC4=CC(=O)C=C[C@]4(C)[C@@]3(F)[C@@H](O)C[C@]2(C)[C@@]1(O)C(=O)CO` [Dexamethasone], the “Log P” value in data set [2] is reported as “Log P = 1.93”.
For `C#CCN(C)[C@H](C)Cc1ccccc1` [Selegiline HCL], the non-normalized release rate in data set [1] (Carbothane PC-3575A, F.M.: 620) was found to be 70 µg/day; in data set [1] (setting [4]) it was 30 µg/day; in data set [1] (Tecoflex EG 100A, F.M.: 10,000) it was 14 µg/day; in data set [1] (Tecoflex EG-65D, F.M.: 37,000), 8 µg/day; in data set [1] (Tecoflex EG-85A, F.M.: 2,300), 3000 µg/day; in data set [1] (Tecophilic HP-60D-20, 15% EWC), 600 µg/day. Moreover, the “release rate normalized” value in data set [1] (Carbothane PC-3575A, F.M.: 620) worked out at 36 μg/day/cm^2; in data set [1] (setting [4]), 15 μg/day/cm^2; in data set [1] (Tecoflex EG 100A, F.M.: 10,000), 7.2 μg/day/cm^2; in data set [1] (Tecoflex EG-65D, F.M.: 37,000) it was 4.1 μg/day/cm^2; in data set [1] (Tecoflex EG-85A, F.M.: 2,300), 1518 μg/day/cm^2; in data set [1] (Tecophilic HP-60D-20, 15% EWC), 294 μg/day/cm^2.
As for `CCNC(=O)[C@@H]1CCCN1C(=O)[C@H](CCCNC(=N)N)NC(=O)[C@H](CC(C)C)NC(=O)[C@@H](Cc1cn(Cc2ccccc2)cn1)NC(=O)[C@H](Cc1ccc(O)cc1)NC(=O)[C@H](CO)NC(=O)[C@H](Cc1c[nH]c2ccccc12)NC(=O)[C@H](Cc1cnc[nH]1)NC(=O)[C@@H]1CCC(=O)N1` [Histrelin Acetate], the “Histrelin Elution Rates” value in data set [3] (week 1 of elution) is 451.733 µg/day; in data set [3] (week 2 of elution) it was 582.666 µg/day; in data set [3] (week 3 of elution), 395.9 µg/day; in data set [3] (week 4 of elution) it was 310.29 µg/day; in data set [3] (week 5 of elution) it was 264.92 µg/day; in data set [3] (week 6 of elution) it was 247.17 µg/day. Moreover, the “Histrelin Elution Rates” value in data set [3] (week 7 of elution) came out at 215.93 µg/day; in data set [3] (week 8 of elution), 201.78 µg/day; in data set [3] (week 9 of elution), 183.22 µg/day; in data set [3] (week 10 of elution) it was 174.99 µg/day; in data set [3] (week 11 of elution), 167.72 µg/day; in data set [3] (week 12 of elution), 158.37 µg/day. The “Histrelin Elution Rates” value stood at 153.95 µg/day in data set [3] (week 13 of elution); 146.46 µg/day in data set [3] (week 14 of elution); 139.83 µg/day in data set [3] (week 15 of elution); 129.6 µg/day in data set [3] (week 16 of elution); 124.46 µg/day in data set [3] (week 17 of elution); 118.12 µg/day in data set [3] (week 18 of elution). Besides, the “Histrelin Elution Rates” value in data set [3] (week 19 of elution) was found to be 120.35 µg/day. In addition, the non-normalized release rate in data set [1] (setting [4]) is 0.4 µg/day; in data set [1] (Tecoflex EG 100A, F.M.: 10,000) it was 0.5 µg/day; in data set [1] (Tecophilic HP-60D-20, 15% EWC) it was 150 µg/day; in data set [1] (Tecophilic HP-60D-35, 24% EWC), 400 µg/day; in data set [1] (Tecophilic HP-60D-60, 31% EWC) it was 500 µg/day. Besides, the “release rate normalized” value worked out at 0.2 μg/day/cm^2 in data set [1] (setting [4]); 0.3 μg/day/cm^2 in data set [1] (Tecoflex EG 100A, F.M.: 10,000); 93 μg/day/cm^2 in data set [1] (Tecophilic HP-60D-20, 15% EWC); 248 μg/day/cm^2 in data set [1] (Tecophilic HP-60D-35, 24% EWC); 309 μg/day/cm^2 in data set [1] (Tecophilic HP-60D-60, 31% EWC).
Take `Clc1cccc(Cl)c1N=C1NCCN1` [Clonidine Base]: the non-normalized release rate in data set [1] (Carbothane PC-3575A, F.M.: 620) worked out at 400 µg/day; in data set [1] (setting [4]) it was 270 µg/day; in data set [1] (Tecoflex EG 100A, F.M.: 10,000), 175 µg/day; in data set [1] (Tecoflex EG-65D, F.M.: 37,000), 50 µg/day; in data set [1] (Tecoflex EG-85A, F.M.: 2,300) it was 2000 µg/day; in data set [1] (Tecophilic HP-60D-20, 15% EWC), 2000 µg/day. The “release rate normalized” value turned out to be 202 μg/day/cm^2 in data set [1] (Carbothane PC-3575A, F.M.: 620); 136 μg/day/cm^2 in data set [1] (setting [4]); 88 μg/day/cm^2 in data set [1] (Tecoflex EG 100A, F.M.: 10,000); 25 μg/day/cm^2 in data set [1] (Tecoflex EG-65D, F.M.: 37,000); 1053 μg/day/cm^2 in data set [1] (Tecoflex EG-85A, F.M.: 2,300); 1011 μg/day/cm^2 in data set [1] (Tecophilic HP-60D-20, 15% EWC). In addition, the “Log P” value in data set [2] is given as “Log P = 2.56”.

(Values after US8460274B2, “Long term drug delivery devices with polyurethane-based polymers and their manufacture” (Endo Pharmaceuticals Solutions Inc., priority 2008, dated 2013).)
